From patent publication US11046696B2, “Fused pyrimidine compound or salt thereof” (TAIHO PHARMACEUTICAL CO., LTD., priority 2016, dated 2021)
Like-named read-outs stand apart in the source and are kept apart here.

Tests used:
[1] = mouse, microsomes, 0.5 h, 1 μM
Method: (§1) Solutions of the test compounds in DMSO/acetonitrile (the final concentration of each test compound was 1 μM, the final concentration of DMSO was 0.01%, and the final concentration of acetonitrile was 1%) were individually added to a liver microsome mixture solution (mouse liver microsome with a final concentration of 0.25 mg/mL, a potassium phosphate buffer with a final concentration of 100 mM, and magnesium chloride with a final concentration of 3 mM), and each mixture was pre-incubated at 37° C. for 5 minutes. […] After incubation at 37° C. for 30 minutes, a double amount of ethanol was added thereto to terminate the reaction, thereby obtaining post-reaction samples. A double amount of ethanol was added to each of the remaining mixture solutions, and a NADPH-generating system was further added thereto, thereby obtaining pre-reaction samples. The pre-reaction samples and post-reaction samples were centrifuged at 2000×g, and their supernatant was filtered through a glass filter. Each filtrate was then introduced into LC-MS/MS, and MS/MS peaks of the test compounds were detected. From the ratio of the post-reaction MS/MS peak to the pre-reaction MS/MS peak of the test compounds, the percentage of the remaining test compounds (remaining %) was calculated.

[2] = test system: human thyroid cancer cell line TT with RET activating mutation; test: In vivo antitumor effect, mice subcutaneously implanted with TT cells; design: species or system BALB/cA Jcl-nu/nu male mice; settings: 100 mg/kg/day group, grouping day (day 0)
Method: Human thyroid cancer cell lines (TT) were subcutaneously implanted into the right frank of 6- to 7-week-old BALB/cA Jcl-nu/nu male mice. After about 2 to 3 weeks from the cell implantation, the length (mm) and the width (mm) of tumors found in mouse bodies were measured. […] The day on which the mice were divided into groups was determined to be the “grouping day” (day 0 or 1).
A control group was administered a solvent (0.5% HPMC/0.1N HCl).
To determine the index of the antitumor effect, TV of each drug-administrated group was measured on day 15, and the tumor volume on day 15 relative to the tumor volume on the grouping day (day 0 or 1) (relative tumor volume: RTV) and T/C (%) were calculated from the following equations, and the antitumor effect was evaluated. […] TV (mm^3)=(length×width^2)/2 RTV=(TV on day 15)/(TV on day 0 or day 1) T/C(%)=(the mean RTV of a test compound treatment group)/(the mean RTV of the control group)×100

[3] = Evaluation of stability in liver microsome; settings: mouse liver microsome, 1 μM, 37° C. for 30 minutes
Method: as §1

Structure (SMILES)	Remaining (%) [3]	also measured
C/C=C/c1ccc(NC(=O)c2c(OCC)n(C3(C)CC3)c3ncnc(N)c23)cc1 [Example 117, (E)-4-amino-6-ethoxy-7-(1-methylcyclopropyl)-N-(4-(prop-1-en-1-yl)phenyl)-7H-pyrrolo[2,3-d]pyrimidine-5-carboxamide]		Remaining (%) [1]: 53%
COCc1ccc(NC(=O)c2c(C#CCN3CCOCC3)n(C3(C)CC3)c3ncnc(N)c23)cc1 [Example 85, 4-amino-N-[4-(methoxymethyl)phenyl]-7-(1-methylcyclopropyl)-6-(3-morpholinoprop-1-yn-1-yl)-7H-pyrrolo[2,3-d]pyrimidine-5-carboxamide]		TV (mm^3) Day 0 Mean ± SE [2]: 169.45 ± 16.73 mm^3
COCc1ccc(NC(=O)c2c(C#Cc3cncnc3)n(C3(C)CC3)c3ncnc(N)c23)cc1 [Example 196, 4-amino-N-(4-(methoxymethyl)phenyl)-7-(1-methylcyclopropyl)-6-(pyrimidin-5-ylethynyl)-7H-pyrrolo[2,3-d]pyrimidine-5-carboxamide]	53%	
COCc1ccc(NC(=O)c2c(-c3ccc(O)cc3)n(C3(C)CC3)c3ncnc(N)c23)cc1 [Example 148, 4-amino-6-(4-hydroxyphenyl)-N-(4-(methoxymethyl)phenyl)-7-(1-methylcyclopropyl)-7H-pyrrolo[2,3-d]pyrimidine-5-carboxamide]	61%	
COCc1ccc(NC(=O)c2c(C#Cc3cccc(F)c3)n(C3(C)CC3)c3ncnc(N)c23)cc1 [Example 130, 4-amino-6-((3-fluorophenyl)ethynyl)-N-(4-(methoxymethyl)phenyl)-7-(1-methylcyclopropyl)-7H-pyrrolo[2,3-d]pyrimidine-5-carboxamide]	84%	
COCc1ccc(NC(=O)c2cn(C(C)(C)CF)c3ncnc(N)c23)cc1 [Example 26, 4-amino-7-(1-fluoro-2-methylpropan-2-yl)-N-(4-(methoxymethyl)phenyl)-7H-pyrrolo[2,3-d]pyrimidine-5-carboxamide]	60%	
COCc1ccc(NC(=O)c2c(C#CCC3NC(=O)NC3=O)n(C3(C)CC3)c3ncnc(N)c23)cc1 (stereo not drawn) [Example 156, 4-amino-6-(3-(2,5-dioxoimidazolidin-4-yl)prop-1-yn-1-yl)-N-(4-(methoxymethyl)phenyl)-7-(1-methylcyclopropyl)-7H-pyrrolo[2,3-d]pyrimidine-5-carboxamide]	67%	
COCCN(C)CC#Cc1c(C(=O)Nc2ccc(COC)cc2)c2c(N)ncnc2n1C1(C)CC1 [Example 197, 4-amino-6-(3-((2-methoxyethyl)(methyl)amino)prop-1-yn-1-yl)-N-(4-(methoxymethyl)phenyl)-7-(1-methylcyclopropyl)-7H-pyrrolo[2,3-d]pyrimidine-5-carboxamide]	52%	
COCc1ccc(NC(=O)c2c(C#CCN3CC[S+]([O-])CC3)n(C3(C)CC3)c3ncnc(N)c23)cc1 [Example 178, 4-amino-N-(4-(methoxymethyl)phenyl)-7-(1-methylcyclopropyl)-6-(3-(1-oxidethiomorpholino)prop-1-yn-1-yl)-7H-pyrrolo[2,3-d]pyrimidine-5-carboxamide]	88%	
